The source of these data is ChEMBL document CHEMBL1139487, “Discovery of corticotropin releasing factor 2 receptor selective sauvagine analogues for treatment of skeletal muscle atrophy” (J Med Chem, 2005).

In experiment [1] the target is T1, Corticotropin-releasing factor receptor 1 (Mus musculus, UniProt P35347).
T1 sequence (P35347 whole entry): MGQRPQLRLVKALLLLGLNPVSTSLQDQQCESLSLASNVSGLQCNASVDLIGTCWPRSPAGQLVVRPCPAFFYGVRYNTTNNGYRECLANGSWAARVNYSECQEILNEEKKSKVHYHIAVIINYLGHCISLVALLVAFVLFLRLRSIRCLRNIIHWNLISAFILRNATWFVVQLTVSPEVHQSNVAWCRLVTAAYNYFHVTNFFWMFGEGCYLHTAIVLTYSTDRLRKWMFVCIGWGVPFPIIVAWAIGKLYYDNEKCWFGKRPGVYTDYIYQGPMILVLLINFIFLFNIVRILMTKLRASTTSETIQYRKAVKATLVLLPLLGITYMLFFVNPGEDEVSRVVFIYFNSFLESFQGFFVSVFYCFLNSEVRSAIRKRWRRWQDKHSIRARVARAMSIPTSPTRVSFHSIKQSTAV
The experiment in a line: In vitro effective concentration for mouse corticotropin releasing factor 1 receptor.

Experiment [2] deals with Corticotropin-releasing factor receptor 2 (Mus musculus, UniProt Q60748). The experiment in a line: In vitro effective concentration for mouse corticotropin releasing factor 2 receptor.
Sequence of Corticotropin-releasing factor receptor 2 (Q60748 whole entry): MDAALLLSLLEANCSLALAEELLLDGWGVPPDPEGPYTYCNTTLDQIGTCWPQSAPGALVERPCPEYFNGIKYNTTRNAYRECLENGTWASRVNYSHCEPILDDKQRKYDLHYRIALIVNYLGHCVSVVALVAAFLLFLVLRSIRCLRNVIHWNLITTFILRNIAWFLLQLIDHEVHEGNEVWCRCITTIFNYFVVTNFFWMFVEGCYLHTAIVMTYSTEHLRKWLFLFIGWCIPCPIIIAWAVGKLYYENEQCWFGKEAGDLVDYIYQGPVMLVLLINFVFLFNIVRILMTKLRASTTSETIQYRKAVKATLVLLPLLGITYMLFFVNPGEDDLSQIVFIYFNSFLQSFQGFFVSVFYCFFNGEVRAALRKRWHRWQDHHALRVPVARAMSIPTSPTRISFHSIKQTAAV

pEC50: −log10 of the molar value. Bounds are passed on as bounds.

With `CC[C@H](C)[C@H](NC(=O)[C@@H](NC(=O)[C@H](CC(=O)O)NC(=O)[C@H](CC(C)C)NC(=O)[C@H](CC(C)C)NC(=O)[C@H](CC(C)C)NC(=O)[C@H](CCCNC(=N)N)NC(=O)[C@H](CC(N)=O)NC(=O)[C@H](CC(N)=O)NC(=O)[C@H](C)NC(=O)[C@H](C)NC(=O)[C@H](CCC(N)=O)NC(=O)[C@H](CCC(N)=O)NC(=O)[C@H](CCCCN)NC(=O)[C@H](CCC(=O)O)NC(=O)[C@H](CCCCN)NC(=O)[C@H](CCC(=O)O)NC(=O)[C@H](CCC(N)=O)NC(=O)[C@H](CCCCN)NC(=O)[C@H](CCC(=O)O)NC(=O)[C@@H](NC(=O)[C@H](CCC(=O)O)NC(=O)[C@@H](NC(=O)[C@H](CCSC)NC(=O)[C@H](CCCCN)NC(=O)[C@H](CCCNC(=N)N)NC(=O)[C@H](CC(C)C)NC(=O)[C@H](CC(C)C)NC(=O)[C@@H](NC(=O)[C@H](Cc1ccccc1)NC(=O)[C@@H]1CCCN1C(=O)[C@H](CC(C)C)NC(=O)[C@H](CC(=O)O)NC(=O)[C@@H](NC(=O)[C@H](CO)NC(=O)[C@@H](NC(=O)[C@@H]1CCCN1C(=O)[C@@H]1CCCN1C(=O)CNC(=O)[C@@H]1CCC(=O)N1)[C@@H](C)CC)[C@@H](C)CC)C(C)C)[C@@H](C)CC)[C@@H](C)CC)[C@@H](C)O)C(=O)O`, the pEC50 in experiment [1] is 7.07; in experiment [2], 8.23.
Turning to `CC[C@H](C)[C@H](NC(=O)[C@@H](NC(=O)[C@H](CC(=O)O)NC(=O)[C@H](CC(C)C)NC(=O)[C@H](CC(C)C)NC(=O)[C@H](CC(C)C)NC(=O)[C@H](CCCNC(=N)N)NC(=O)[C@H](CC(N)=O)NC(=O)[C@H](CC(N)=O)NC(=O)[C@H](C)NC(=O)[C@H](C)NC(=O)[C@H](CCC(N)=O)NC(=O)[C@H](CCC(N)=O)NC(=O)[C@H](CCCCN)NC(=O)[C@H](CCC(=O)O)NC(=O)[C@H](CCCCN)NC(=O)[C@H](CCC(=O)O)NC(=O)[C@H](CCC(N)=O)NC(=O)[C@H](CCCCN)NC(=O)[C@H](CCC(=O)O)NC(=O)[C@@H](NC(=O)[C@H](CCC(=O)O)NC(=O)[C@@H](NC(=O)[C@H](CCSC)NC(=O)[C@H](CCCCN)NC(=O)[C@H](CCCNC(=N)N)NC(=O)[C@H](CC(C)C)NC(=O)[C@H](CC(C)C)NC(=O)[C@H](Cc1ccccc1)NC(=O)[C@H](Cc1ccc(O)cc1)NC(=O)[C@@H]1CCCN1C(=O)[C@H](CC(C)C)NC(=O)[C@H](CC(=O)O)NC(=O)[C@@H](NC(=O)[C@H](CO)NC(=O)[C@@H](NC(=O)[C@@H]1CCCN1C(=O)[C@@H]1CCCN1C(=O)CNC(=O)[C@@H]1CCC(=O)N1)[C@@H](C)CC)[C@@H](C)CC)[C@@H](C)CC)[C@@H](C)CC)[C@@H](C)O)C(=O)O`, the values for the pEC50 in experiment [1] and in experiment [2] were 7.20 and 8.39, respectively.
For the compound `CC[C@H](C)[C@H](NC(=O)[C@@H](NC(=O)[C@H](CC(=O)O)NC(=O)[C@H](CC(C)C)NC(=O)[C@H](CC(C)C)NC(=O)[C@H](CC(C)C)NC(=O)[C@H](CCCNC(=N)N)NC(=O)[C@H](CC(N)=O)NC(=O)[C@H](CC(N)=O)NC(=O)[C@H](C)NC(=O)[C@H](C)NC(=O)[C@H](CCC(N)=O)NC(=O)[C@H](CCC(N)=O)NC(=O)[C@H](CCCCN)NC(=O)[C@H](CCC(=O)O)NC(=O)[C@H](CCCCN)NC(=O)[C@H](CCC(=O)O)NC(=O)[C@H](CCC(N)=O)NC(=O)[C@H](CCCCN)NC(=O)[C@H](CCC(=O)O)NC(=O)[C@@H](NC(=O)[C@H](CCC(=O)O)NC(=O)[C@@H](NC(=O)[C@H](CCSC)NC(=O)[C@H](CCCCN)NC(=O)[C@H](CCCNC(=N)N)NC(=O)[C@H](CC(C)C)NC(=O)[C@H](CC(C)C)NC(=O)[C@@H](NC(=O)[C@H](CCC(N)=O)NC(=O)[C@@H]1CCCN1C(=O)[C@H](CC(C)C)NC(=O)[C@H](CC(=O)O)NC(=O)[C@@H](NC(=O)[C@H](CO)NC(=O)[C@@H](NC(=O)[C@@H]1CCCN1C(=O)[C@@H]1CCCN1C(=O)CNC(=O)[C@@H]1CCC(=O)N1)[C@@H](C)CC)[C@@H](C)CC)[C@@H](C)CC)[C@@H](C)CC)[C@@H](C)CC)[C@@H](C)O)C(=O)O`, the pEC50 is 6.15 in experiment [1] and 8.07 in experiment [2].
For “H-IVLSLDVPIGLLQILLEQARARAAREQATTNARILARV-OH [HUMAN UROCORTIN 2]”, in that order: under 6.00 and 8.37.
Turning to `CC[C@H](C)[C@H](NC(=O)[C@@H](NC(=O)[C@H](CC(=O)O)NC(=O)[C@H](CC(C)C)NC(=O)[C@H](CC(C)C)NC(=O)[C@H](CC(C)C)NC(=O)[C@H](CCCNC(=N)N)NC(=O)[C@H](CC(N)=O)NC(=O)[C@H](CC(N)=O)NC(=O)[C@H](C)NC(=O)[C@H](C)NC(=O)[C@H](CCC(N)=O)NC(=O)[C@H](CCC(N)=O)NC(=O)[C@H](CCCCN)NC(=O)[C@H](CCC(=O)O)NC(=O)[C@H](CCCCN)NC(=O)[C@H](CCC(=O)O)NC(=O)[C@H](CCC(N)=O)NC(=O)[C@H](CCCCN)NC(=O)[C@H](CCC(=O)O)NC(=O)[C@@H](NC(=O)[C@H](CCC(=O)O)NC(=O)[C@@H](NC(=O)[C@H](CCSC)NC(=O)[C@H](CCCCN)NC(=O)[C@H](CCCNC(=N)N)NC(=O)[C@H](CC(C)C)NC(=O)[C@H](CC(C)C)NC(=O)[C@H](CC(C)C)NC(=O)[C@H](CC(C)C)NC(=O)[C@@H]1CCCN1C(=O)[C@H](CC(C)C)NC(=O)[C@H](CC(=O)O)NC(=O)[C@@H](NC(=O)[C@H](CO)NC(=O)[C@@H](NC(=O)[C@@H]1CCCN1C(=O)[C@@H]1CCCN1C(=O)CNC(=O)[C@@H]1CCC(=O)N1)[C@@H](C)CC)[C@@H](C)CC)[C@@H](C)CC)[C@@H](C)CC)[C@@H](C)O)C(=O)O`, the pEC50 in experiment [1] was 6.79; in experiment [2] it was 8.13.
As to `CC[C@H](C)[C@H](NC(=O)[C@@H](NC(=O)[C@H](CC(=O)O)NC(=O)[C@H](CC(C)C)NC(=O)[C@H](CC(C)C)NC(=O)[C@H](CC(C)C)NC(=O)[C@H](CCCNC(=N)N)NC(=O)[C@H](CC(N)=O)NC(=O)[C@H](CC(N)=O)NC(=O)[C@H](C)NC(=O)[C@H](C)NC(=O)[C@H](CCC(N)=O)NC(=O)[C@H](CCC(N)=O)NC(=O)[C@H](CCCCN)NC(=O)[C@H](CCC(=O)O)NC(=O)[C@H](CCCCN)NC(=O)[C@H](CCC(=O)O)NC(=O)[C@H](CCC(N)=O)NC(=O)[C@H](CCCCN)NC(=O)[C@H](CCC(=O)O)NC(=O)[C@@H](NC(=O)[C@H](CCC(=O)O)NC(=O)[C@@H](NC(=O)[C@H](CCSC)NC(=O)[C@H](CCCCN)NC(=O)[C@H](CCCNC(=N)N)NC(=O)[C@H](CC(C)C)NC(=O)[C@H](CC(C)C)NC(=O)[C@H](CCC(N)=O)NC(=O)[C@H](Cc1ccccc1)NC(=O)[C@@H]1CCCN1C(=O)[C@H](CC(C)C)NC(=O)[C@H](CC(=O)O)NC(=O)[C@@H](NC(=O)[C@H](CO)NC(=O)[C@@H](NC(=O)[C@@H]1CCCN1C(=O)[C@@H]1CCCN1C(=O)CNC(=O)[C@@H]1CCC(=O)N1)[C@@H](C)CC)[C@@H](C)CC)[C@@H](C)CC)[C@@H](C)CC)[C@@H](C)O)C(=O)O`, the negative logarithm of the EC50 (pEC50) in experiment [1] was 6.95; in experiment [2], 8.74.
Regarding `CC[C@H](C)[C@H](NC(=O)[C@@H](NC(=O)[C@H](CC(=O)O)NC(=O)[C@H](CC(C)C)NC(=O)[C@H](CC(C)C)NC(=O)[C@H](CC(C)C)NC(=O)[C@H](CCCNC(=N)N)NC(=O)[C@H](CC(N)=O)NC(=O)[C@H](CC(N)=O)NC(=O)[C@H](C)NC(=O)[C@H](C)NC(=O)[C@H](CCC(N)=O)NC(=O)[C@H](CCC(N)=O)NC(=O)[C@H](CCCCN)NC(=O)[C@H](CCC(=O)O)NC(=O)[C@H](CCCCN)NC(=O)[C@H](CCC(=O)O)NC(=O)[C@H](CCC(N)=O)NC(=O)[C@H](CCCCN)NC(=O)[C@H](CCC(=O)O)NC(=O)[C@@H](NC(=O)[C@H](CCC(=O)O)NC(=O)[C@@H](NC(=O)[C@H](CCSC)NC(=O)[C@H](CCCCN)NC(=O)[C@H](CCCNC(=N)N)NC(=O)[C@H](CC(C)C)NC(=O)[C@H](CC(C)C)NC(=O)[C@@H](NC(=O)[C@H](CC(C)C)NC(=O)[C@@H]1CCCN1C(=O)[C@H](CC(C)C)NC(=O)[C@H](CC(=O)O)NC(=O)[C@@H](NC(=O)[C@H](CO)NC(=O)[C@@H](NC(=O)[C@@H]1CCCN1C(=O)[C@@H]1CCCN1C(=O)CNC(=O)[C@@H]1CCC(=O)N1)[C@@H](C)CC)[C@@H](C)CC)C(C)C)[C@@H](C)CC)[C@@H](C)CC)[C@@H](C)O)C(=O)O`, the figures for the pEC50 in experiment [1] and in experiment [2] were 6.58 and 8.26, respectively.
For `CC[C@H](C)[C@H](NC(=O)[C@@H](NC(=O)[C@H](CC(=O)O)NC(=O)[C@H](CC(C)C)NC(=O)[C@H](CC(C)C)NC(=O)[C@H](CC(C)C)NC(=O)[C@H](CCCNC(=N)N)NC(=O)[C@H](CC(N)=O)NC(=O)[C@H](CC(N)=O)NC(=O)[C@H](C)NC(=O)[C@H](C)NC(=O)[C@H](CCC(N)=O)NC(=O)[C@H](CCC(N)=O)NC(=O)[C@H](CCCCN)NC(=O)[C@H](CCC(=O)O)NC(=O)[C@H](CCCCN)NC(=O)[C@H](CCC(=O)O)NC(=O)[C@H](CCC(N)=O)NC(=O)[C@H](CCCCN)NC(=O)[C@H](CCC(=O)O)NC(=O)[C@@H](NC(=O)[C@H](CCC(=O)O)NC(=O)[C@@H](NC(=O)[C@H](CCSC)NC(=O)[C@H](CCCCN)NC(=O)[C@H](CCCNC(=N)N)NC(=O)[C@H](CC(C)C)NC(=O)[C@H](CC(C)C)NC(=O)[C@H](CC(C)C)NC(=O)[C@H](Cc1ccc(O)cc1)NC(=O)[C@@H]1CCCN1C(=O)[C@H](CC(C)C)NC(=O)[C@H](CC(=O)O)NC(=O)[C@@H](NC(=O)[C@H](CO)NC(=O)[C@@H](NC(=O)[C@@H]1CCCN1C(=O)[C@@H]1CCCN1C(=O)CNC(=O)[C@@H]1CCC(=O)N1)[C@@H](C)CC)[C@@H](C)CC)[C@@H](C)CC)[C@@H](C)CC)[C@@H](C)O)C(=O)O`, in that order: 7.12 and 8.28.
